Like-named read-outs stand apart in the source and are kept apart here. Bounds are passed on as bounds.

Drawing on US20100087523A1, “Rupestonic acid derivatives and use thereof” (priority 2008, published 2010), this text covers CC50 and IC50 for 13 compounds.

The subject of data set [1] is MDCK (Madin-darby canine kidney) cells. The following applies: read-out: TC50 (toxic concentration 50%); host cells of the anti-flu virus test.
The subject of data set [2] is A-type flu virus (jifang/90-15).
The test system of data set [3] is B-type flu virus (jifang/97-13). The note with it: read-out: Activity for inhibiting B-type flu viruses IC50.
Data set [4] in a line: in vitro. The note with it: dog.
The test system of data set [5] is A-type flu virus (jifang/90-15). Nature of the data set: organism not typed. The note with it: MDCK, 36 h, read-out: Activity for inhibiting A-type flu viruses IC50.
Data set [6] concerns B-type flu virus (jifang/97-13). The data set can be described thus: organism not typed. The note with it: MDCK, 36 h, read-out: Activity for inhibiting B-type flu viruses IC50.
The mark [7] stands for this setting: read-out: Activity for inhibiting A-type flu viruses IC50.
[8] abbreviates: read-out: IC50, inhibit A-type flu virus.

For `C=C(C(=O)Nc1ccc(Cl)cc1)C1CCC(C)C2CC(=O)C(C)=C2C1` (centres unmarked) [A-2, N(4-chloro-phenyl)-Rupestonic amide], the CC50 in data set [1] worked out at 121 µM. The figures for the half-maximal inhibitory concentration (IC50) in data set [2] (setting [7]) and in data set [3] were 19.2 µM and 29.9 µM, respectively.
`C=C(C(=O)Nc1ccccc1Br)C1CCC(C)C2CC(=O)C(C)=C2C1` (centres unmarked) [A-5, N(2-bromo-phenyl)-Rupestonic amide]: in data set [1], the CC50 worked out at 160 µM. Besides, the IC50 in data set [2] (setting [7]) worked out at 49 µM.
In the case of `C=C(C(=O)OCC)C1CCC(C)C2CC(=O)C(C)=C2C1` (centres unmarked) [B-1, Ethyl Rupestonic ester], the CC50 in data set [1] was found to be 194 µM. In addition, the concentration for half-maximal inhibition (IC50) in data set [2] (setting [7]) stood at 39.1 µM; in data set [3] it was 50.9 µM.
Turning to `C=C(C(=O)Oc1ccc(Cl)cc1)C1CCC(C)C2CC(=O)C(C)=C2C1` (centres unmarked) [B-2, Rupestonic (p-chlorophenyl)-ester], the CC50 in data set [1] came out at 240 µM. Also, the IC50 in data set [2] (setting [8]) worked out at 19.1 µM.
On to `C=C(C(=O)Oc1ccccc1Cl)C1CCC(C)C2CC(=O)C(C)=C2C1` (centres unmarked) [B-3, Rupestonic (o-chlorophenyl)-ester], for which, in data set [1], the CC50 was determined as 49.7 µM. Further, in data set [2] (setting [7]), the concentration for half-maximal inhibition (IC50) stood at 11.5 µM.
Regarding `C=C(C(=O)Oc1ccc(Br)cc1)C1CCC(C)C2CC(=O)C(C)=C2C1` (centres unmarked) [B-4, Rupestonic (p-bromophenyl)-ester], the CC50 in data set [1] amounted to 44.2 µM. The IC50 in data set [2] (setting [7]) came out at 10.2 µM.
As for `C=C(C(=O)Oc1ccc(C)cc1)C1CCC(C)C2CC(=O)C(C)=C2C1` (centres unmarked) [B-9, Rupestonic (p-methylphenyl)-ester], the CC50 in data set [1] turned out to be 191 µM. Besides, in data set [2] (setting [8]), the concentration for half-maximal inhibition (IC50) worked out at 13.4 µM.
`C=C(C(=O)OCc1ccc(Cl)cc1)C1CCC(C)C2CC(=O)C(C)=C2C1` (centres unmarked) [B-14, Rupestonic (p-chlorobenzyl)-ester]: the CC50 in data set [1] is 47.7 µM. Besides, the IC50 in data set [2] (setting [7]) turned out to be 12.5 µM; in data set [3], 19.1 µM.
On to `C=C(C(=O)OCc1ccc([N+](=O)[O-])cc1)C1CCC(C)C2CC(=O)C(C)=C2C1` (centres unmarked) [B-15, Rupestonic (p-nitryl-benzyl)-ester], for which, in data set [1], the CC50 amounted to 25 µM. The IC50 in data set [2] (setting [7]) and in data set [3] was 5.5 µM in each case.
With `C=C(C(=O)OCc1ccccc1Br)C1CCC(C)C2CC(=O)C(C)=C2C1` (centres unmarked) [B-17, Rupestonic (o-bromobenzyl)-ester], the CC50 in data set [1] came to 57.3 µM. The half-inhibitory concentration (IC50) in data set [2] (setting [7]) is 15.2 µM; in data set [3], 25.7 µM.
As to `C=C(C(=O)O)[C@H]1CC[C@H](C)[C@@H]2CC(=O)C(C)=C2C1` [Compound 1, rupestonic acid], in data set [1], the CC50 turned out to be 1040 µM. Besides, the IC50 in data set [3] is 116 µM.
On to `CCOC(=O)C1=C[C@@H](OC(CC)CC)[C@H](NC(C)=O)[C@@H](N)C1` [Oseltamivir], for which the CC50 in data set [4] was > 1220 µM. Besides, the half-maximal inhibitory concentration (IC50) in data set [5] was 5.1 µM.
For `NC(=O)c1ncn([C@@H]2O[C@H](CO)[C@@H](O)[C@H]2O)n1` [Ribavirin], the CC50 in data set [4] came to 1570 µM. The values for the 50% inhibitory concentration (IC50) in data set [5] and in data set [6] were 1.6 µM and 11.9 µM, respectively.
